From PMC9585589 (ACS Chemical Neuroscience, 2022)
“And” between values parts separate entries of the source, which are not always exact repeats. Identical values can stand only once. Like-named read-outs stand apart in the source and are kept apart here.

How the values were obtained:
human CB1 = settings: one per compound, cited from earlier work
human CB1 receptor [1] = biological target: T1, human CB1 receptor (Homo sapiens, UniProt P21554); assay: biochemical
Method: Ten compound concentrations equally spaced on a log scale (10^–3 to 10^–9 M) were incubated in triplicate with membrane preparations from CHO-K1 cells expressing the human CB1 receptor (5 μg per well) (Perkin Elmer, cat. no. ES-110-M400UA) in an assay buffer containing 50 mM Tris-HCl, pH = 7.4, 1 mM EGTA, 3 mM MgCl2, 100 mM NaCl and 30 μM GDP) in the presence of 0.08 nM [^35S]GTPγS (specific activity: 1250 Ci/mmole, Perkin Elmer). Non-specific binding was determined with 100 μM of unlabeled GTPγS. […] The final DMSO concentration in the assay was 5%. The reaction mixture was incubated for 90 min. at 30°C . Next, the samples were deposited under vacuum with the FilterMate Harvester® (Perkin Elmer, USA) onto Unifilter® GF/B Plates (Perkin Elmer, USA) presoaked with wash buffer (50 mM Tris-HCl, pH = 7.4). The samples were then rapidly washed with 2 ml of wash buffer. Filter plates were dried for 30 min. at 50 °C and 40 μL of MicroScint PS (Perkin Elmer, USA) scintillation fluid was added to each well. Radioactivity was counted in a Trilux MicroBeta^2 counter (Perkin Elmer, USA). Data were analyzed with GraphPad Prism 5.0 software. Curves were fitted with three-parameter non-linear regression model.

human CB1 receptor [2] = biological target: T1, human CB1 receptor; type: biochemical; settings: in words
[3] = parameters: method as in MedChemExpress product data sheet; settings: ref MedChemExpress product data sheet, cited from earlier work
human CB1 receptor [4] = biological target: T1, human CB1 receptor; assay: biochemical; type: binding; parameters: purchased Merck HTS019M; host or cells: Chem-1 cells
Source text: Compounds selected for the in vitro binding assay from the first iteration of VS were purchased via MolPort, SIA, Riga, Latvia and Biopurify Phytochemicals Ltd., Chengdu, China. Compounds from the second iteration were purchased from MolPort, SIA, Riga, Latvia and Chemspace, SIA, Riga, Latvia (Supporting Information S3). […] Membranes from cells overexpressing the human CB1 receptor (ChemiScreen CB1 Cannabinoid Receptor Membrane Preparation, cat. no. HTS019M) as well as MgCl2, CaCl2, Trizma Base, NaCl, polyethylenimine (PEI) and dimethyl sulfoxide (DMSO) were purchased from Merck (USA). Bovine serum albumin (BSA) was obtained from Pol-Aura (Poland).
Compounds were dissolved in 50% DMSO and added to the reaction mixture at 10 concentrations equally spaced on a log scale (10^–10 to 10^–4.5 M). The final DMSO concentration was 5%. […] The reaction mixture (500 μL) was incubated for 1.5 h at 30°C . Before harvesting, Whatman GF/B Filter Paper (Brandel, USA) was presoaked with 0.33% PEI buffer for 30 min. and then washed with 2 ml of 50 mM Tris-HCl buffer (pH = 7.4) and 0.5% BSA to minimize non-specific binding. The reaction was terminated by depositing the samples onto GF/B filter paper with the Brandel M-24 Cell Harvester (Brandel, USA). Samples were then rapidly washed 3 times with 2 ml of ice-cold wash buffer (50 mM Tris-HCl pH 7.4, 500 mM NaCl) to separate the bound radioligand from free. Filters were then air-dried for 1 h at 60°C . After drying, filter discs were placed on a flexible 24-well plate and 500 μL of EcoScint-20 scintillant was added to each well. Plates were counted (2 min. per well) in a Trilux MicroBeta^2 2450 scintillation counter (Perkin Elmer, USA). Data were analyzed with GraphPad Prism 5.0 software.[89]

CB1 = settings: known CB1 ligands; ref 55 (rimonabant), 56 (nabilone), 17 (bazedoxifene); cited from earlier work
[5] = CB1 agonists, Table S8, ref SI (1)-(19)
[6] = CB1 antagonists/inverse agonists, Table S9, ref SI (20)-(38)
[7] = CB1 inhibition IC50 (μM, 95% CI)
[8] = CHO-K1 membranes, WIN 55,212-2 (3 μM) as stimulating ligand, read-out: CB1 inhibition pIC50 (converted)
[9] = [3H]CP-55,940 displacement, membranes of Chem-1 cells expressing human CB1, read-out: pKi ± SEM (converted)
[10] = read-out: CB1 inhibition IC50 (μM, 95% CI)

T1 sequence (P21554 whole entry): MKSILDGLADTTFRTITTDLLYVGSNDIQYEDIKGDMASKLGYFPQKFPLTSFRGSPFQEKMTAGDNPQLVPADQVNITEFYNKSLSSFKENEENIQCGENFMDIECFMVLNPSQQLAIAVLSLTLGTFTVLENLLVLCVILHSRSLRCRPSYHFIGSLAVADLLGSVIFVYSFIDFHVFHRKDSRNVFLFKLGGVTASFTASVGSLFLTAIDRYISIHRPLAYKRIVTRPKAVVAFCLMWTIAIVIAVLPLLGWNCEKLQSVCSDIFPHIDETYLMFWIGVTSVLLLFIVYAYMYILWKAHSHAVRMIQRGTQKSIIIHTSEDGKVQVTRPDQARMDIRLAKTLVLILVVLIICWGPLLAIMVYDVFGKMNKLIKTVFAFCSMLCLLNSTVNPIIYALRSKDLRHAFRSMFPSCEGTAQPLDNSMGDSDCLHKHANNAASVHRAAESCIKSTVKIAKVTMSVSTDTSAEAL

O=S(=O)(CCCC(F)(F)F)Oc1cccc(Oc2cccc3c2C[C@H](CO)C3)c1 [BAY 38-7271]
Ki (human CB1; [5]): 2.91 nM

N#Cc1c(Oc2cccc(OS(=O)(=O)CCCC(F)(F)F)c2)cccc1C(F)(F)F [BAY 59-3074]
Ki (human CB1; [5]): 48.3 nM

Cc1nc2c(-c3ccc(Cl)cc3)n(-c3ccccc3Cl)nc2c(=O)n1CC(F)(F)F [CHEMBL201602]
Ki (human CB1; [6]): 0.6 nM

Cc1c(C(=O)NN2CCCCC2)nn(-c2ccc(Cl)cc2Cl)c1-c1ccc(N)cc1 [CHEMBL349955]
Ki (human CB1; [6]): 81.5 nM

CC(C)N1CCOc2c(nn(-c3ccccc3Cl)c2-c2ccc(Cl)cc2)C1=O [CHEMBL482741]
Ki (human CB1; [6]): 1.3 nM

CCNC1(C(N)=O)CCN(c2cnc(-c3ccc(OCC)cc3)c(-c3ccccc3Cl)n2)CC1 [CHEMBL495891]
Ki (human CB1; [6]): 15 nM

CCNC1(C(N)=O)CCN(c2cnc(-c3ccc(Cl)cc3)c(-c3ccc(Cl)cc3Cl)n2)CC1 [CHEMBL496293]
Ki (human CB1; [6]): 0.91 nM

CCNC1(C(N)=O)CN(c2cnc(-c3ccc(C(F)(F)F)cc3)c(-c3ccnc(Cl)c3)n2)C1 [CHEMBL498783]
Ki (human CB1; [6]): 1.2 nM

Cc1c(-c2cn(-c3ccccc3)cn2)nn(-c2ccccc2Cl)c1-c1ccc(Cl)cc1 [CHEMBL568221]
Ki (human CB1; [6]): 3.8 nM

CCCCCCC(C)(C)c1ccc([C@@H]2C[C@H](O)C[C@@H]3CC[C@H](CO)C[C@H]32)c(O)c1 [CP-55,244]
Ki (human CB1; [5]): 1 nM

CC(C)OC(=O)CCC/C=C\C[C@@H]1[C@@H](/C=C/[C@@H](O)COc2cccc(C(F)(F)F)c2)[C@H](O)C[C@@H]1O [Compound 9, travoprost]
IC50 (human CB1 receptor [1]; [7]): 232 µM | IC50 (human CB1 receptor [1]; [8]): 229 µM | intrinsic activity (human CB1 receptor [2]): antagonists | Solubility ([3]; 10% DMSO >> 40% PEG300 >> 5% Tween-80 >> 45% saline): ≥ 2.08 mg/mL and ≥ 4.16 mM | Solubility ([3]; 10% DMSO >> 90% (20% SBE-β-CD in saline)): ≥ 2.08 mg/mL and ≥ 4.16 mM | Solubility ([3]; 10% DMSO >> 90% corn oil): ≥ 2.08 mg/mL and ≥ 4.16 mM | Solubility in DMSO ([3]; in vitro): ≥ 41.67 mg/mL and ≥ 83.25 mM | Ki (human CB1 receptor [4]; Ki (μM, 95% CI)): 3.6 µM | Ki (human CB1 receptor [4]; [9]): 3.98 µM

COc1cc(O)c2c(=O)cc(-c3ccc(OC)c(-c4c(O)cc(O)c5c(=O)cc(-c6ccc(O)cc6)oc45)c3)oc2c1 [Compound 15, ginkgetin]
IC50 (human CB1 receptor [1]; [7]): 63 µM | intrinsic activity (human CB1 receptor [2]): antagonists | Ki (human CB1 receptor [4]; Ki (μM, 95% CI)): 8.6 µM | Ki (human CB1 receptor [4]; [9]): 8.71 µM

COc1cc(-c2c3cn[nH]c3nc3c2oc2c(O)c(O)ccc23)ccc1OCc1ccc(C(C)C)cc1 [Compound 30]
IC50 (human CB1 receptor [1]; [8]): 2.09 µM | Emax (human CB1 receptor [1]; CHO-K1 membranes, read-out: CB1 stimulation Emax (%)): 126 ± 5% | EC50 (human CB1 receptor [1]; CHO-K1 membranes, read-out: CB1 stimulation pEC50 (converted)): 417 nM | intrinsic activity (human CB1 receptor [2]): mixed CB1 partial agonist/antagonist | Ki (human CB1 receptor [4]; Ki (μM, 95% CI)): 0.8 µM | Ki (human CB1 receptor [4]; [9]): 0.851 µM

COc1ccc([C@@H](CC(=O)NCc2cccc3[nH]ccc23)c2cc3c(cc2O)OCO3)cc1 [Compound 32]
IC50 (human CB1 receptor [1]; [8]): 33.1 µM | IC50 (human CB1 receptor [1]; [10]): 40 µM | intrinsic activity (human CB1 receptor [2]): antagonists | Ki (human CB1 receptor [4]; Ki (μM, 95% CI)): 6.8 µM | Ki (human CB1 receptor [4]; [9]): 6.31 µM

OCCN1CCN(CC/C=C2/c3ccccc3Sc3ccc(C(F)(F)F)cc32)CC1 [Compound 33, Flupentixol]
Solubility ([3]; 10% DMSO >> 40% PEG300 >> 5% Tween-80 >> 45% saline, listed as Flupentixol dihydrochloride): ≥ 2.5 mg/mL and ≥ 4.93 mM | Solubility ([3]; 10% DMSO >> 90% (20% SBE-β-CD in saline), listed as Flupentixol dihydrochloride): ≥ 2.5 mg/mL and ≥ 4.93 mM | Solubility ([3]; 10% DMSO >> 90% corn oil, listed as Flupentixol dihydrochloride): ≥ 4.93 mM and ≥ 2.5 mg/mL | Solubility in H2O ([3]; in vitro, need ultrasonic, listed as Flupentixol dihydrochloride): 100 mg/mL and 197.07 mM | Solubility in DMSO ([3]; in vitro, listed as Flupentixol dihydrochloride): 33.33 mg/mL and 65.68 mM | pKi ± SEM (human CB1 receptor [4]; [3H]CP-55,940 displacement, membranes of Chem-1 cells expressing human CB1): 4.27 ± 0.04 | Ki (human CB1 receptor [4]; read-out: Ki (μM, 95% CI)): 53 µM

COc1ccccc1C(CCNC(C)c1ccc(Cl)cc1)c1ccc(OC(C)C)cc1 (centres unmarked) [Compound 34]
IC50 (human CB1 receptor [1]; [8]): 3.72 µM | intrinsic activity (human CB1 receptor [2]): antagonists | Ki (human CB1 receptor [4]; [9]): 2.69 µM

COc1ccc(-c2cc(-c3ccccc3)cc(-c3ccccc3O)n2)c(OC)c1 [Compound 38]
IC50 (human CB1 receptor [1]; [10]): 140 µM | intrinsic activity (human CB1 receptor [2]): antagonists | Ki (human CB1 receptor [4]; [9]): 2.51 µM

COc1cccc2c1ccn2CCNC(=O)[C@H](Cc1cn(C)c2ccccc12)NC(=O)OC(C)(C)C [Compound 43]
IC50 (human CB1 receptor [1]; [8]): 1.86 µM | intrinsic activity (human CB1 receptor [2]): antagonists | Ki (human CB1 receptor [4]; Ki (μM, 95% CI)): 6.6 µM

CS(=O)(=O)N(c1cc(F)cc(F)c1)C1CN(C(c2ccc(Cl)cc2)c2ccc(Cl)cc2)C1 [Drinabant]
Ki (human CB1; [6]): 11 nM

O=C(c1ccc2c(c1)c1ccccc1n2CCCCCF)c1cccc2ccccc12 [EG-2201]
Ki (human CB1; [5]): 22.4 nM

CCCCCCC(C)(C)c1cc(O)c2c(c1)OC(C)(C)[C@@H]1CC=C(CO)C[C@@H]21 [HU-210]
Ki (human CB1; [5]): 0.06 nM

CN=C(NS(=O)(=O)c1ccc(Cl)cc1)N1C[C@H](c2ccccc2)C(c2ccc(Cl)cc2)=N1 [Ibipinabant]
Ki (human CB1; [6]): 7.8 nM

CC(C)[C@H](N=C(NS(=O)(=O)c1ccc(Cl)cc1)N1C[C@H](c2ccccc2)C(c2ccc(Cl)cc2)=N1)C(N)=O [JD-5037]
Ki (human CB1; [6]): 0.35 nM

CCCCCn1cc(C(=O)c2cccc3ccccc23)c2ccccc21 [JWH-018]
Ki (human CB1; [5]): 9 nM

CCCCCCn1cc(C(=O)c2cccc3ccccc23)cc1-c1ccccc1 [JWH-147]
Ki (human CB1; [5]): 11 nM

CCCCCn1cc(C(=O)c2cccc3ccccc23)cc1-c1ccccc1F [JWH-307]
Ki (human CB1; [5]): 7.7 nM

COC(=O)[C@@H](NC(=O)c1ccc2c(c1)c1ccccc1n2CC1CCCCC1)C(C)(C)C [MDMB-CHMCZCA]
Ki (human CB1; [5]): 5.75 nM

C/C(N)=N\C(=N/S(=O)(=O)c1ccc(C(F)(F)F)cc1)N1C[C@H](c2ccccc2)C(c2ccc(Cl)cc2)=N1 [MRI-1867]
Ki (human CB1; [6]): 2.3 nM

CCCCC/C=C\C/C=C\C/C=C\C/C=C\CCCCOC(CO)CO [Noladin ether]
Ki (human CB1; [5]): 25 nM

O=C(NCc1ccc(F)cc1)c1ccc(S(=O)(=O)n2cc(N3CCCCC3)c3ccccc32)cc1 [PipISB]
Ki (human CB1; [6]): 1.5 nM

CCc1c(C(=O)NN2CCCCC2)nn(-c2ccc(Cl)cc2Cl)c1-c1ccc(Br)cc1 [Surinabant]
Ki (human CB1; [6]): 3.5 nM

C[C@H](NC(=O)C(C)(C)Oc1ccc(C(F)(F)F)cn1)[C@@H](Cc1ccc(Cl)cc1)c1cccc(C#N)c1 [Taranabant]
Ki (human CB1; [6]): 0.13 nM

CCCCCn1cc(C(=O)C2C(C)(C)C2(C)C)c2ccccc21 [UR-144]
Ki (human CB1; [5]): 29 nM

CC1(C)C(C(=O)c2cn(CCCCCF)c3ccccc23)C1(C)C [XLR-11]
Ki (human CB1; [5]): 24 nM

Cc1c(-c2ccc(O)cc2)n(Cc2ccc(OCCN3CCCCCC3)cc2)c2ccc(O)cc12 [bazedoxifene]
pKi (CB1): 6.1[17]

CCCCCCC(C)(C)c1cc(O)c2c(c1)OC(C)(C)C1CCC(=O)CC21 (centres unmarked) [nabilone]
pKi (CB1): 8.7[56]
